According to US20240043859A1, “HERBICIDE-RESISTANT PROTEIN, AND GENE AND USE THEREOF” (QINGDAO KINGAGROOT CHEMICAL COMPOUND CO., LTD., priority 2020, published 2024):

System: soybean William82
Assay: Spray testing of transgenic soybean T1 seedlings
Assay type: in vivo
Settings: 4.48 kg/ha foliage spray, 10 days after spraying
Excerpt: 1. Vector construction: the pQY2330 vector (see FIG. 8-1) was used as the overexpression vector, containing a Bar resistance gene that can be used as a selection marker for glufosinate. The AAD-like gene, QYD42, SEQ ID NO. 83, was linked to the Xho I restriction site by seamless cloning to construct the transgenic expression vector pQY2330, of which the expression cassette consisted of a double CaMV35S promoter, the AAD-like gene QYD42 and a […] Nos terminator.
2. Genetic transformation of soybeans: Soybean transformation was carried out using the Agrobacterium-mediated cotyledon nodes transformation method (Pareddy D, Chennareddy S, Anthony G, et al. Improved soybean transformation for efficient and high throughput transgenic production[J]. Transgenic Research, 2020, 29(968)). A monoclone of the Agrobacterium (EHA105) comprising the overexpression vector pQY2330 was inoculated into 5 ml YEP liquid medium (containing 25 mg/L Rifampicin and 50 mg/L Kanamycin) and shaking-cultured at 220 rmp/min, 28° C. for 8 hours. And then 0.2-0.3 ml bacteria solution was transferred to 200 ml YEP liquid medium (containing 25 mg/L Rifampicin and 50 mg/L Kanamycin) and shaking-cultured at 220 rmp/min, 28° C. overnight until the bacteria reached the exponential growth stage, then centrifuged at 4000 rmp/min for 20 min to collect the cells into a 50 ml centrifuge tube (sterilized). […]

Q: Which “Effect of the herbicide spray on non-transgenic soybean William82” value does the source give for `O=C(O)COc1ccc(Cl)cc1Cl` [2,4-D, (2,4-dichlorophenoxy)acetic acid, reference compound] here?
A: all non-transgenic recipient parents died and die
